Experimental data as given in US20090269795A1, “Mutant alpha4betadelta GABAA receptor and methods of treating anxiety or irritability” (priority 2007, published 2009).

Assays:
Conditions in all cases: 30 nM THP
[1] = biological target: T1, α4[R353Q]β2δ GABAA receptors (UniProt P63138+Q9D6F4, R389Q); experiment: Patch clamp of GABA-gated current at mutated receptors in HEK-293 cells; assay type: cell-based, mouse α4
T1 construct: expressed in transfected cells; host or cells: HEK-293
Method: (§1) Whole cell patch clamp recording—GABA-gated currents were recorded at room temperature (20-22° C.) at a holding potential of −50 mV^14. The pipet solution contained (in mM): N-methyl-D-glucamine chloride 120, Cs4BAPTA 5 (Calbiochem), Mg-ATP 5, and an ATP regeneration system (20 mM Tris phosphocreatine and creatine kinase). Internal [Cl^−] or the holding potential were varied, using gluconate as the anion, to alter the direction of Cl^− flow, corrected for the junction potential. In some cases, current-voltage curves were constructed using the peak current response to agonist or agonist+THP across a range of holding potentials (−60 to +60) applied as 10 mV steps, or as a voltage ramp. […] Traces are presented as the average of 3 traces after subtraction of the leak current. […] This rapid application technique yields currents with a rapid rise phase. THP was also bath applied 30 s prior to tests of steroid effects. Currents were recorded using an Axopatch 1D amplifier (Axon Instruments) filtered at 2 kHz (four-pole Bessel filter) and detected at 10 kHz (pClamp 5.1). Analysis of peak current was accomplished with pClamp 9.2 and Origin software (Microcal).
(§2) Mutagenesis: Site-directed mutations were made using the Quik-Change Mutagenesis Kit I or II (Stratagene Inc., La Jolla, Calif.). Numbering of mutated residues was based on the distance from arginine 99^19. Successful mutations were verified with double-stranded sequencing of end-products (Genewiz Inc., North Brunswick, N.J.).
(§3) Recombinant receptors: Human embryonic kidney (HEK)-293 cells were transfected with α4 β2δ or other indicated subunit combinations (see Supplementary Methods) and co-transfected with enhanced green fluorescent protein for visualization. GABA-gated currents were recorded at room temperature (20-22° C.) at a holding potential of −50 mV^17 using a pipet solution containing 120 mM: N-methyl-D-glucamine chloride. Internal [Cl^−] or the holding potential were varied to alter the direction of Cl^− flow. […] Currents were recorded using an Axopatch 1D amplifier (Axon Instruments) filtered at 2 kHz (four-pole Bessel filter), detected at 10 kHz and analyzed with pClamp 9.2. Desensitization rate was determined using non-linear curve-fitting routines (Origin, Microcal; see next section).

[2] = biological target: T2, α4(R353C)β2δ GABAA receptors (UniProt P63138+Q9D6F4, R389C); experiment: as above; assay type: cell-based, mouse α4
T2 construct: expressed in transfected cells; host or cells: HEK-293
Method: as §1, §2, §3

[3] = tested on: α4β2δ GABAA receptors with α4 mutations R351Q, K352Q, K316Q, R317Q and K318Q; experiment: as above; assay type: cell-based, mouse α4
Method: as §1, §2, §3

[4] = biological target: T3, α4(R353K)β2δ GABAA receptors (UniProt P63138+Q9D6F4, R389K); experiment: as above; assay type: cell-based, mouse α4
T3 construct: expressed in transfected cells; host or cells: HEK-293
Method: as §1, §2, §3

[5] = biological target: T4, α1β2δ receptors (Rattus norvegicus, UniProt P62813+P63138); experiment: Whole cell patch clamp of GABA-gated current, recombinant receptors in HEK-293 cells; assay type: cell-based, rat α1, rat β2, human δ
T4 construct: expressed in transfected cells; host or cells: HEK-293
Text: (§4) Recombinant receptors: Transfection—Plasmids obtained from S. Vicini (rat α1, α5, β2, β3 and γ2), P. Whiting (human α4 and δ) and N. L. Harrison (mouse α4) were propagated in E coli DH5α and prepared using Qiagen Maxi- or Midi-prep kits. (Rat, mouse and human α1, β2, β3 and γ2 subunits are identical or nearly identical.) All receptors were transfected at a 1:1:1 ratio, except α1β2γ2 (1:1:5)^12, α4βδ (5:1:5)^13 and α4β2γ2 (5:1:1). HEK-293 cells were maintained in medium (DMEM:Ham's F-12 1:1) supplemented with 10% fetal calf serum at 37° C. in a humid 5% CO2 atmosphere. Cells were transfected using calcium phosphate or Polyfect (Qiagen) and co-transfected with enhanced green fluorescent protein (ratio of DNA to eGFP was 6:1 or 10:1 depending on the DNA concentration) for visualization. α4-containing GABAA receptors required 2-3 d for maximal levels of expression; all other receptors were recorded 1-2 d after transfection. Because mouse α4 and human α4-containing receptors yielded the same results, the currents were averaged together.
(§5) Whole cell patch clamp recording—GABA-gated currents were recorded at room temperature (20-22° C.) at a holding potential of −50 mV^14. […] Currents were recorded using an Axopatch 1D amplifier (Axon Instruments) filtered at 2 kHz (four-pole Bessel filter) and detected at 10 kHz (pClamp 5.1). […]

[6] = tested on: α4β3δ receptors; experiment: as above; assay type: cell-based, human or mouse α4, rat β3, human δ
Text: as §4, §5

With `CC(=O)[C@H]1CC[C@H]2[C@@H]3CC[C@H]4C[C@H](O)CC[C@]4(C)[C@H]3CC[C@]12C` [THP, 3α-OH-5α[β]-pregnan-20-one] the “effect on inward current” value [1] was “increased inward current”, the “steroid-induced reduction in outward current at mutant receptor” value ([1]; R353Q) was “prevented the steroid-induced reduction in outward current” and the “steroid-induced reduction in outward current at mutant receptor” value [2] was “prevented the steroid-induced reduction in outward current”. For the same compound, the “effect of mutation on THP inhibition of outward current” value [3] was “had no effect”, the “THP inhibition of outward current at mutant receptor” value [4] was “did not prevent THP inhibition of outward current” and the “effect on outward current” value [5] was “either increased or had no effect”. The “effect on outward current” value [6] was “either increased or had no effect”.
